This assay concerns MCF-7 cells. The assay is described as follows: In vitro test of cell activity (MCF-7 cells, insulin stimulation, ELISA-One fluorescence). In kind it is cell-based. Particulars: Homo sapiens, MCF7, MCF-7 cells; for inhibition at 0.25 µM: conc. 0.25 μM; for inhibition at 0.5 µM: conc. 0.5 μM. An outline of the steps: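 Fluorescence ELISA-One read-out on cell lysates, antibody-captured 1 h at room temperature. Before lysis, MCF-7 cells (2.5×10^4/well) were pretreated 2 h with compound in serum-free medium, single dose for screening or a dilution series for IC50, then stimulated 30 min with insulin ([…] final).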

SMILES strings stand for the structures. Where two headings read alike, the source gives them in different places.

The term inhibition denotes the relative decrease from the control value, in per cent. Broadly, the IC50 is the midpoint of a concentration-inhibition curve. As for `CCOc1cnc2ccc(-c3cnc(OC)c(NS(=O)(=O)c4ccc(F)cc4F)c3)cn2c1=O` [compound 171, N-(5-(3-ethoxy-4-oxo-4H-pyrido[1,2-a]pyrimidin-7-yl)-2-methoxypyridin-3-yl)-2,4-difluorobenzsulfamide], the inhibition at 0.25 µM runs as follows: (read-out: % inhibition AKT) 76.3%; (read-out: % inhibition p70s6k) 73.4%. In addition, the IC50 was in the range of 50 to 100 nM (read-out: IC50 p-AKT) and 100 to 250 nM (read-out: IC50 p-p70S6K).
Regarding `COc1ncc(-c2ccc3nc(C)cc(=O)n3c2)cc1NS(=O)(=O)c1cc(F)ccc1F` [compound 226], the inhibition at 0.5 µM is, setting by setting: (read-out: % inhibition AKT) 14.8%; (read-out: % inhibition p70s6k) 4.6%.
As to `COc1ncc(-c2ccc3ncc(F)c(=O)n3c2)cc1NS(=O)(=O)c1ccc(C#N)cc1` [compound 70], the inhibition at 0.5 µM amounted to 75.4% (read-out: % inhibition AKT) and 99% (read-out: % inhibition p70s6k). Moreover, the IC50 (read-out: IC50 p-AKT) lay within 50 to 100 nM and the IC50 (read-out: IC50 p-p70S6K) was 50 to 100 nM.
For `COc1ncc(-c2cn3c(=O)ccnc3cc2C)cc1NS(=O)(=O)c1c(F)cccc1F` [compound 125], the inhibition at 0.5 µM reads like this: (read-out: % inhibition AKT) 23.5%; (read-out: % inhibition p70s6k) 5%.
On to `COCCOc1cnc2ccc(-c3cnc(OC)c(NS(=O)(=O)c4ccc(F)cc4Cl)c3)cn2c1=O` [compound 213], for which, under “read-out: IC50 p-AKT”, the IC50 was 50 to 100 nM.
As for `COc1ncc(-c2ccc3ncc(Cl)c(=O)n3c2)cc1NS(=O)(=O)c1cnc(C)[nH]1` [compound 155], the inhibition at 0.25 µM stood at 29.8% (read-out: % inhibition AKT) and 42.2% (read-out: % inhibition p70s6k).
Regarding `COc1ncc(-c2ccc3ncc(N)c(=O)n3c2)cc1NS(=O)(=O)c1ccc(F)cc1F` [compound 87, N-(5-(3-amino-4-oxo-4H-pyrido[1,2-a]pyrimidin-7-yl)-2-methoxpyridin-3-yl)-2,4-difluorobenzsulfamide], the inhibition at 0.5 µM is, setting by setting: (read-out: % inhibition AKT) 92.1%; (read-out: % inhibition p70s6k) 88.1%. Also, the IC50 is, setting by setting: (read-out: IC50 p-AKT) at most 50 nM; (read-out: IC50 p-p70S6K) 100 to 250 nM.
Regarding `COCCOc1cnc2ccc(-c3cnc(OC)c(NS(=O)(=O)c4ccc(F)cc4Br)c3)cn2c1=O` [compound 279], under “read-out: IC50 p-AKT”, the IC50 is at most 50 nM.
In the case of `COc1ncc(-c2ccc3nc(C)cc(=O)n3c2)cc1NS(=O)(=O)c1ccccc1F` [compound 230], the inhibition at 0.5 µM (read-out: % inhibition AKT) was 43.5% and the inhibition at 0.5 µM (read-out: % inhibition p70s6k) came to 8.8%.
The like results for `COc1ncc(-c2ccc3nccc(=O)n3n2)cc1NS(=O)(=O)c1ccc(C#N)cc1` [compound 77] were, in that order, 50% and 4.8%.
Turning to `CCOCCOc1cnc2ccc(-c3cnc(OC)c(NS(=O)(=O)c4sc(C)nc4C)c3)cn2c1=O` [compound 199], the IC50 (read-out: IC50 p-AKT) is at most 50 nM.
In the case of `COc1ncc(-c2ccc3ncc(Cl)c(=O)n3c2)cc1NS(=O)(=O)c1ccc(C)nc1C` [compound 169], under “read-out: IC50 p-AKT”, the IC50 is at most 50 nM.
With `COc1ncc(-c2ccc3ncc(Cl)c(=O)n3c2)cc1NS(=O)(=O)c1cc(F)ccc1F` [compound 139], the inhibition at 0.5 µM came to 93.7% (read-out: % inhibition AKT) and 88.5% (read-out: % inhibition p70s6k). Besides, the IC50 (read-out: IC50 p-AKT) was at most 50 nM and the 50% inhibitory concentration (IC50) (read-out: IC50 p-p70S6K) was 50 to 100 nM.
As to `COc1ncc(-c2ccc3nccc(=O)n3n2)cc1NS(=O)(=O)c1ccccc1Cl` [compound 74], the inhibition at 0.5 µM runs as follows: (read-out: % inhibition AKT) 74.1%; (read-out: % inhibition p70s6k) 26%.
`COCOc1cnc2ccc(-c3cnc(OC)c(NS(=O)(=O)c4ccc(F)cc4F)c3)cn2c1=O` [compound 179]: the IC50 (read-out: IC50 p-AKT) was at most 50 nM and the IC50 (read-out: IC50 p-p70S6K) was at most 50 nM.
In the case of `COc1ncc(-c2ccc3ncc(C)c(=O)n3c2)cc1NS(=O)(=O)c1ccc(Cl)cc1F` [compound 82], the inhibition at 0.5 µM runs as follows: (read-out: % inhibition AKT) 92.1%; (read-out: % inhibition p70s6k) 88.1%. The IC50 by setting is: (read-out: IC50 p-AKT) at most 50 nM; (read-out: IC50 p-p70S6K) 100 to 250 nM.
Consider `COc1ncc(-c2ccc3ncc(Cl)c(=O)n3c2)cc1NS(=O)(=O)c1ccccc1` [compound 142], for which the inhibition at 0.5 µM turned out to be 94.8% (read-out: % inhibition AKT) and 90.8% (read-out: % inhibition p70s6k). For the same molecule, the IC50 runs as follows: (read-out: IC50 p-AKT) at most 50 nM; (read-out: IC50 p-p70S6K) 50 to 100 nM.
`COc1ncc(-c2ccc3ncc(Cl)c(=O)n3c2)cc1NS(=O)(=O)c1sc(NC(C)=O)nc1C` [compound 167]: the IC50 (read-out: IC50 p-AKT) lay in the range of 100 to 250 nM.
